Experiments:
[1] = tested on: NFκB transcription factor in A549/NFκB-luc reporter cell line; assay: NF-κB transactivation after rhTNFα in A549/NFκB-luc reporter cell line; format: cell-based; details: rhTNFα activation
Excerpt: (§1) Inhibition of activation of NF-kB by SP001P and SP 2010. We evaluated the effects of SP001P and SP 2010 on the activity of NFκB transcription factor after activation with rhTNFα in a reporter cell line A549/NFκB-luc designed by Panomics according to the manufacturer's instructions. […] It is interesting to note that although SP001P has only 20% of SP 2010 yet it produced a dose response curve that was very similar with SP 2010 (FIG. 4A). […] We studied the effects of SP 2010 on TNF-α-dependent activation of NF-κB binding to KB site in nuclear extracts of HeLa cells. To measure the binding of the activated NF-κB to its consensus KB sequence, nuclear extracts from HeLa cells treated with SP 2010 and stimulated with TNFα were prepared by the Panomics Nuclear Extraction kit. Nuclear extracts were diluted to 2 μg/μl and 10 μl of the extract was used to quantify transcription factor activation, specifically that of NF-κB p50 (ELISA, Panomics).

[2] = tested on: NAD[P]H:(quinone-acceptor) oxidoreductase (QR) in mouse hepatoma Hepa 1c1c7 cells; assay: Activation of quinone reductase (QR) in Hepa 1c1c7 cells, menadione-coupled tetrazolium reduction; format: cell-based
Description: Activation of Quinone reductase (NAD[P]H:(quinone-acceptor) oxidoreductase (QR). We studied the effects of SP001P and SP 2010 on the activation of QR, a phase 2 enzyme in mouse hepatoma cells Hepa 1c1c7 (ATCC) at lower concentrations. QR protects cells against quinones and highly reactive semiquinones by catalyzing an obligate two-electron reduction of quinones to hydroquinones. We have developed a 96-well plate assay to assess QR activity in these cell lines. QR activity was measured by a menadione-coupled reduction of tetrazolium dye as modified from Prochaska and Santamari. Cells (10^4 per well) were grown for 24 h and then exposed to serial dilutions of inducers for 24 h. Protein concentrations in a corresponding plate were determined by methylene blue staining as described earlier. SP001P and SP 2010 stimulated NAD[P]H:(quinone-acceptor) oxidoreductase (QR), a phase 2 enzyme in a dose dependent manner in mouse hepatoma Hepa 1c1c7 cells at concentrations known to inhibit B[a]P-induced transformation of RTE cells, (FIG. 2). The concentration required to double the specific activity of QR (CD value) for SP001P and SP 2010 were 24 ng/ml and 49 nM, respectively.

[3] = Oxygen Radical Absorbance Capacity (ORAC) assay
Excerpt: Antioxidant Capability of SP001P and SP 2010. The Oxygen Radical Absorbance Capacity (ORAC) assay depends on the free radical damage to a fluorescent probe, such as fluorescein, to result in a downward change of fluorescent intensity. The presence of antioxidants results in an inhibition in the free radical damage to the fluorescent compound. Reactions containing antioxidants and blanks (solvent) are run in parallel using equivalent amounts of a ROS generator and fluorescent probe. The area under the curve (AUC) from the experimental sample is calculated. Results from different samples are compared with Trolox®, (6-hydroxy-2,5,7,8-tetrametmethylchroman-2-carboxylic acid) a water soluble vitamin E analog and ORAC results are expressed as Trolox® equivalents. ORAC values are calculated using the regression equation between Trolox concentration and the net AUC and are expressed as micromole Trolox equivalents per gram of sample. SP001P and SP 2010 are potent antioxidants with values of 357 and 441 micromole Trolox equivalents per gram, respectively.

[4] = tested on: NF-κB p50 binding to KB site in HeLa cells; assay: TNF-α-dependent NF-κB binding to κB site in nuclear extracts of HeLa cells (NF-κB p50 ELISA); format: cell-based; details: HeLa cells stimulated with TNFα
Excerpt: as §1

Cc1coc2c1C(=O)C(=O)c1c-2ccc2c1CCCC2(C)C [SP 2010, Tanshinone IIA]
transactivation of NF-κB [1]: dose-dependent decrease
concentration required to double the specific activity of QR (CD value) ([2]; 24 h exposure): 49 nM
stimulation of QR ([2]; FIG. 2): stimulated
ORAC value [3]: 441 micromole Trolox equivalents per gram
NF-κB binding to KB site [4]: dose-dependent decrease
